One data set concerns the target T1, human sirtuin-1 (Sirt1) (Homo sapiens, UniProt Q96EB6).
T1 construct: purchased BioMol, Hamburg, Germany
T1 sequence (Q96EB6 1-747): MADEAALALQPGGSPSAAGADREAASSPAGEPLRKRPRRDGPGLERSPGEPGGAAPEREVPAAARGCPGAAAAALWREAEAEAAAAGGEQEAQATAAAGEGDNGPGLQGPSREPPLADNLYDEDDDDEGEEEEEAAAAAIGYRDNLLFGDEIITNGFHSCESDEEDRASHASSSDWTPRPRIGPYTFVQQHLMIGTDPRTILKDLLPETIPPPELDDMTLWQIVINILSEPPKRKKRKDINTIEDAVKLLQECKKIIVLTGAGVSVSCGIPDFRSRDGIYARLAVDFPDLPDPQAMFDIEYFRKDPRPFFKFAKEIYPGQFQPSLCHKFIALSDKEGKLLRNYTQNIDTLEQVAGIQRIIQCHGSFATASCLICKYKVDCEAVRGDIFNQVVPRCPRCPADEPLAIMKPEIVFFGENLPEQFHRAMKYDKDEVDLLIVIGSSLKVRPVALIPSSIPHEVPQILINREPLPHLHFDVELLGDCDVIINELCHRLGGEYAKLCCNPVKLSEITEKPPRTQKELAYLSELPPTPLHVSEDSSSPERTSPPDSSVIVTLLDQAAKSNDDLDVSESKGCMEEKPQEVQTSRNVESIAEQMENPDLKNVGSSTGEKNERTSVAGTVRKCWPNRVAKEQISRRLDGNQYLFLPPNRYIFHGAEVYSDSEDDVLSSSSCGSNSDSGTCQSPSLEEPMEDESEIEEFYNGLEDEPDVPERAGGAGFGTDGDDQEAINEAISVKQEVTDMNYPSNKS
The data set is described as follows: SIRT1 Fluorimetric Drug Discovery Kit, Sirt1 activation. Conditions: for Fold increase in sirt1 activity versus control: Example 1(a), 10 µM, trans-resveratrol as control (1.0); for remaining activity at 0.3 µM / remaining activity at 1 µM / remaining activity at 3 µM / remaining activity at 10 µM / remaining activity at 30 µM: read-out: Activity [% control]. The format is biochemical. On the procedure: Compounds were tested for Sirt1 activation using the SIRT1 Fluorimetric Drug Discovery Kit (BioMol, Hamburg, Germany), Testing was carried out in duplicate following the manufacturer's instructions. Assay medium: 50mM Tris-HCl pH 8.0, 137 mM NaCl, 2.7 mM KCI, 1 mM MgCl2, 1 mg/ml bovine serum albumin (BSA). Stock solutions of the test compounds (10 mM in DMSO) were used, yielding a final concentration of 10 µM in the assay plate. Readout was obtained by measuring the fluorescence in a microtiter plate reader (excitation: 380 nm; detection: 440 nm).
The agonistic effect on Sirt1 was determined at different concentrations. For this purpose, the test compound stock solutions were diluted to yield concentrations of 0.3, 1, 3, 10 and 30 µM, respectively, in the assay, which was performed as described above. The compound of structure (I-1) was selected for this experiment.
The selectivity of the agonistic effect of the compound of formula (I-1) on different sirtuin isoforms was investigated. For this purpose, in vitro testing was performed as described in Example 1 using the respective SIRT1 Fluorimetric Drug Discovery Kit, SIRT2 Fluorimetric Drug Discovery Kit, and SIRT3 Fluorimetric Drug Discovery Kit (each from BioMol, Hamburg, Germany). […] The dose-response effect is slightly lesser on Sirt3. Table 3: Activity on Sirt1

Data set [1] deals with 5'-AMP-activated protein kinase (AMPK). The data set is described as follows: Western blot analysis of AMPK phosphorylation in NHEK.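 For P-AMPK: Chemiluminescence band density of P-AMPK measured with Multigauge software.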 Conditions: for AMPK phosphorylation [% Control] / P-AMPK / Ratio P-AMPK/ GAPDH: 48 h. The class given is cell-based, human.
Another data set concerns the target T2, Sirt2 (Homo sapiens, UniProt Q8IXJ6).
T2 construct: purchased BioMol, Hamburg, Germany
T2 sequence (Q8IXJ6 1-389): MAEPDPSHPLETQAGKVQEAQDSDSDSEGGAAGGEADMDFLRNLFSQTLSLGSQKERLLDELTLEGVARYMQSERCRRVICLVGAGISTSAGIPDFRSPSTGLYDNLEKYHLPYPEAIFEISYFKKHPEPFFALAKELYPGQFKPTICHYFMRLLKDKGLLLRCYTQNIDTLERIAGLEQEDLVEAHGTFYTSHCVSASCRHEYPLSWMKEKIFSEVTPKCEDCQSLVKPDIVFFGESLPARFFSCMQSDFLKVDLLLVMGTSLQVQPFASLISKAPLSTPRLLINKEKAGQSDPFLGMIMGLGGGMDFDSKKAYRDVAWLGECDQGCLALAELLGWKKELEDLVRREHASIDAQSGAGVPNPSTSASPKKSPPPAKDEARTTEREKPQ
The data set is described as follows: SIRT2 Fluorimetric Drug Discovery Kit, Sirt2 activation. The class given is biochemical. To be noted: Example 2, Table 6, Sirt2.

In data set [2] the test system is normal human epidermal keratinocytes (NHEK). The data set is described as follows: MTT reduction assay, cytotoxicity in NHEK. The class given is cell-based. Conditions: for viability: NHEK, MTT. Here is the method:
Culture conditions: 37 °C, 5 % CO2. Culture medium: Keratinocyte-SFM (serum-free medium) containing human recombinant epidermal growth factor (EGF 1-53) 0.25 ng/mL and bovine pituitary extract 25 µg/mL (Gibco; Cat. No. 17005-075), supplemented with gentamycin 25 µg/mL. Assay medium: Keratinocyte-SFM (Gibco; Cat. No. 10744-019), supplemented with gentamycin 25 µg/mL.
NHEK were seeded in 24-well plates (30.000 cells / well) and cultured in culture medium for 24 h and then in assay medium for another 24 h. Medium was then removed and replaced by assay medium containing the respective test compound or reference in defined concentrations.
Cytotoxicity was determined using the 3-(4,5-dimethylthiazol-2-yl)-2,5-diphenyltetrazoliumbromid (MTT) reduction assay (sse T. Mosmann (1983) J. Immunol. Methods. 65, pp. 55-63).
(In general: Formazan colour is commonly taken as a measure of viable cells.)

[3] abbreviates: Experiment 1, Membrane 1, 1000 µM.
Where [4] appears, read: Experiment 1, Membrane 2, 300 µM.

From patent EP2801357A1, “Carboxylated stilbenes for activating AMPK and sirtuins” (IMD Natural Solutions GmbH, priority 2013, dated 2014) come the findings set out here.

Where two headings read alike, the source gives them in different places.

For the molecule `CC(=O)c1c(O)cccc1/C=C/c1ccc(OC2OC(CO)C(O)C(O)C2O)cc1` (stereo not drawn) [(I-5)], the “Fold increase in sirt1 activity versus control” value (from here on “Fold increase”) on human sirtuin-1 (Sirt1) was found to be 2.7.
The same measure, in the same setting: the value for `COC(=O)c1c(/C=C/c2ccc(OC)cc2)cccc1OC` [(I-3)] was 1.1.
On to `NC(=O)c1ncn([C@@H]2O[C@H](CO)[C@@H](O)[C@H]2O)c1N` [AICAR, 5-Amino-1-ß-D-ribofuranosyl-imidazole-4-carboxamide], for which, in data set [1] (setting [3]), the “AMPK phosphorylation [% Control]” value is 482 % Control, the P-AMPK was 1060 AU/mm^2 and the “Ratio P-AMPK/ GAPDH” value came to 2.05. In data set [1] (Experiment 2, 1000 µM), the “AMPK phosphorylation [% Control]” value stood at 506 % Control, the P-AMPK was 1377449 AU/mm^2 and the “Ratio P-AMPK/ GAPDH” value was determined as 0.572.
As for `COc1cc(/C=C/c2cccc(O)c2C(=O)O)cc(OC)c1O` [(I-4)], the “Fold increase” value at human sirtuin-1 (Sirt1) was determined as 2.0.
Regarding `Oc1ccc(/C=C/c2cc(O)cc(O)c2)cc1` [trans-resveratrol], the remaining activity at 0.3 µM at human sirtuin-1 (Sirt1) (Example 1(b), Table 2, 0.3 µM) came out at 104%; at human sirtuin-1 (Sirt1) (Example 2, Table 3, 0.3 µM), 121%. For the same molecule, the remaining activity at 1 µM on human sirtuin-1 (Sirt1) (Example 1(b), Table 2, 1.0 µM) is 101%; on human sirtuin-1 (Sirt1) (Example 2, Table 3, 1.0 µM), 100%. Also, the remaining activity at 3 µM on human sirtuin-1 (Sirt1) (Example 1(b), Table 2, 3.0 µM) worked out at 100%; at human sirtuin-1 (Sirt1) (Example 2, Table 3, 3.0 µM), 117%. The remaining activity at 10 µM worked out at 108% on human sirtuin-1 (Sirt1) (Example 1(b), Table 2, 10.0 µM) and 111% at human sirtuin-1 (Sirt1) (Example 2, Table 3, 10.0 µM). Further, the remaining activity at 30 µM at human sirtuin-1 (Sirt1) (Example 1(b), Table 2, 30.0 µM) came out at 120%; at human sirtuin-1 (Sirt1) (Example 2, Table 3, 30.0 µM), 145%. Also, the EC300 on human sirtuin-1 (Sirt1) (Example 1(b), concentration that gave 3-times the basal response of the enzyme) is more than 30 µM; on human sirtuin-1 (Sirt1) (Example 2, Table 6, Sirt1) it was more than 30 µM; on Sirt2 it was more than 30 µM. For the same molecule, the “AMPK phosphorylation [% Control]” value is on record as 722 % Control in data set [1] (setting [4]); 81 % Control in data set [1] (Experiment 2, 10 µM); 86 % Control in data set [1] (Experiment 2, 30 µM); 117 % Control in data set [1] (Experiment 2, 100 µM); 816 % Control in data set [1] (Experiment 2, 200 µM); 21 % Control in data set [1] (Experiment 2, 300 µM). The P-AMPK in data set [1] (setting [4]) is recorded as 1616 AU/mm^2; in data set [1] (Experiment 2, 10 µM), 228626 AU/mm^2; in data set [1] (Experiment 2, 30 µM), 211794 AU/mm^2; in data set [1] (Experiment 2, 100 µM), 327757 AU/mm^2; in data set [1] (Experiment 2, 200 µM), 2361575 AU/mm^2; in data set [1] (Experiment 2, 300 µM), 69290 AU/mm^2. Moreover, the “dosage needed for similar enhancement of AMPK phosphorylation” value in data set [1] (effect similar to compound (I-1) at 30 µM) is reported as “at least 200 µM”. For the same molecule, the results for the viability in data set [2] (100 µM) and in data set [2] (300 µM) were 2% and 43%, respectively. In addition, the “concentrations with cytotoxic effects on NHEK” value in data set [2] (under assay conditions) was not below 100 µM.
As for `O=C(O)c1c(O)cccc1/C=C/c1ccc(O)cc1` [(I-2)], the “Fold increase” value at human sirtuin-1 (Sirt1) came out at 4.8.

One may read the viability as a per cent measure of how many cells are alive, often set against a control. Low values mean a greater loss of cells, high ones better survival.
